Data taken from paper PMC4601562 (Bioorganic & medicinal chemistry, 2015).

Tests used:
Format in all cases: biochemical
spASADH [1] = molecular target: T1, spASADH (Streptococcus pneumoniae, UniProt Q8DQ00)
T1 sequence (Q8DQ00 1-358): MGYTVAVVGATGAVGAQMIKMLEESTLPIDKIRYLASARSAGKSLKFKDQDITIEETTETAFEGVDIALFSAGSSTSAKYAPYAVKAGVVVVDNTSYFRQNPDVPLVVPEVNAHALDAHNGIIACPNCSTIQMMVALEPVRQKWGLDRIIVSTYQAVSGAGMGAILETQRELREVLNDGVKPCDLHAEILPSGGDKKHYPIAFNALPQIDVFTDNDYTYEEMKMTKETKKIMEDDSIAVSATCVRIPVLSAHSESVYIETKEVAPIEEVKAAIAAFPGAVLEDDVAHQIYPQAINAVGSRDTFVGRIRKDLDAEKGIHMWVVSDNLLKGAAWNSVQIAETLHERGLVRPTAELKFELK

vcASADH = vcASADH (Vibrio cholerae, UniProt Q9KQG2); experiment: ASADH kinetic assay
Sequence of vcASADH (Q9KQG2 whole entry): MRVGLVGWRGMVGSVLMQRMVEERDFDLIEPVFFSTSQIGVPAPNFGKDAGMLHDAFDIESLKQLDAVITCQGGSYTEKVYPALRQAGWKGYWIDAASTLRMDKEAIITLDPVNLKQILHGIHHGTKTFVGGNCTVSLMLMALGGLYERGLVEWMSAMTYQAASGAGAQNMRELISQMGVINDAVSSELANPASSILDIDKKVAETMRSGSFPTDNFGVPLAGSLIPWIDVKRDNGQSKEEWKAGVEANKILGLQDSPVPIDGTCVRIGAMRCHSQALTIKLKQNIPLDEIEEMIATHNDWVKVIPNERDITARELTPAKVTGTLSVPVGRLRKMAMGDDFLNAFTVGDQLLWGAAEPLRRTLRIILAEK

spASADH [2] = details: ratio of Ki vcASADH / spASADH

NC(=O)c1ccc(CN(CC(=O)[O-])Cc2ccc(C(=O)[O-])c(C(=O)[O-])c2)cc1.[Na+].[Na+].[Na+] [compound 32, N-(4-carboxamidebenzyl)-N-carboxymethyl-3,4-dicarboxybenzylamine]
loss of affinity (spASADH [1]; carboxamide (32) relative to p-carboxylbenzyl derivative (31)): 3 fold

O=C([O-])CN(Cc1ccc(C(=O)[O-])c(C(=O)[O-])c1)c1ccc(-c2ccccc2)cc1.[Na+].[Na+].[Na+] [compound 17, N-(4-biphenyl)-N-carboxymethyl-3,4-dicarboxybenzylamine]
improved inhibition of spASADH relative to the parent benzyl derivative (spASADH [1]; relative to parent benzyl derivative (13)): 25 fold

O=C([O-])CCNCc1ccc(C(=O)[O-])c(C(=O)[O-])c1.[Na+].[Na+].[Na+] [compound 4, N-carboxyethyl-3,4-dicarboxybenzylamine]
inhibition of vcASADH (in words) (vcASADH): did not show appreciable inhibition

CN(CC(=O)[O-])Cc1cccc(C(=O)[O-])c1C(=O)[O-].[Na+].[Na+].[Na+] [compound 9, N-methyl, N-carboxymethyl-2,3-dicarboxybenzylamine]
inhibition of vcASADH (in words) (vcASADH): no inhibition

CC(C)(C)c1ccc(CN(CC(=O)[O-])Cc2ccc(C(=O)[O-])c(C(=O)[O-])c2)cc1.[Na+].[Na+].[Na+] [compound 33, N-(4-t-butylbenzyl)-N-carboxymethyl-3,4-dicarboxybenzylamine]
selectivity for spASADH relative to vcASADH (spASADH [2]): over 40 fold
